One data set addresses T1, p38 MAP kinase (Homo sapiens, UniProt Q16539).
T1 construct: made in house; host or cells: E. coli (co-expressed with SEK-1 and MEKK)
In words: p38 (MAP) kinase in vitro assay, transfer of γ-33P-phosphate from ATP to Myelin Basic Protein. Type of data set: biochemical. Particulars: phosphorylated recombinant p38 MAP kinase, MBP substrate, γ-33P-ATP, 30° C. As to the method:
This example illustrates a p38 (MAP) kinase in vitro assay useful for evaluating the compounds of the invention.
The p38 MAP kinase inhibitory activity of compounds of this invention in vitro was determined by measuring the transfer of the γ-phosphate from γ-^33P-ATP by p-38 kinase to Myelin Basic Protein (MBP), using a minor modification of the method described in Ahn, et al., J. Biol. Chem. 266:4220-4227 (1991).
The phosphorylated form of the recombinant p38 MAP kinase was co-expressed with SEK-1 and MEKK in E. Coli (see, Khokhlatchev, et al., J. Biol. Chem. 272:11057-11062 (1997)) and then purified by affinity chromatography using a Nickel column.
The phosphorylated p38 MAP kinase was diluted in kinase buffer (20 mM 3-(N-morpholino)propanesulfonic acid, pH 7.2, 25 mM β-glycerol phosphate, 5 mM ethylene glycol-bis(beta-aminoethyl ether)-N,N,N′,N′-tetraacetic acid, 1 mM sodium ortho-vanadate, 1 mM dithiothreitol, 40 mM magnesium chloride). Test compound dissolved in DMSO or only DMSO (control) was added and the samples were incubated for 10 min at 30° C. The kinase reaction was initiated by the addition of a substrate cocktail containing MBP and γ-^33P-ATP. […] The phosphorylated MBP was then separated from the residual γ-^33P-ATP using a phosphocellulose membrane (Millipore, Bedford, Mass.) and quantitated using a scintillation counter (Packard, Meriden, Conn.).

Molecules are shown by their SMILES.

T1 sequence (Q16539 whole entry): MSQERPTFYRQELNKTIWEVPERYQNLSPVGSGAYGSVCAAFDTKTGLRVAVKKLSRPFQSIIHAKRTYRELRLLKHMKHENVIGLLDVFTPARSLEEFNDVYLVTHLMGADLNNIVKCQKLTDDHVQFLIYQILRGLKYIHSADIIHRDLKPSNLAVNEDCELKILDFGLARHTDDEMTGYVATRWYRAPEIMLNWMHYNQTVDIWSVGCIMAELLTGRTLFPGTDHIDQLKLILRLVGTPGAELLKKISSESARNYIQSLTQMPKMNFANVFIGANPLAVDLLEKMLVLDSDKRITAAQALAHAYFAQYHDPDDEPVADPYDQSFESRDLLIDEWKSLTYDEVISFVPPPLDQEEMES

Take `OC[C@@H](O)CNc1nc(Oc2ccc(F)cc2F)nc2[nH]nc(-c3ccccc3Cl)c12` [3-[3-(2-Chloro-phenyl)-6-(2,4-difluoro-phenoxy)-1H-pyrazolo[3,4-d]pyrimidin-4-ylamino]-propane-1,2-diol]: the IC50 (as a rule, the point on the concentration scale where inhibition reaches its midpoint) on p38 MAP kinase came out at 4 nM.

As for `OC[C@H](O)COc1nc(Oc2ccc(F)cc2F)nc2[nH]nc(-c3ccccc3Cl)c12` [Example 5, (S)-3-[3-(2-Chloro-phenyl)-6-(2,4-difluoro-phenoxy)-1H-pyrazolo[3,4-d]pyrimidin-4-yloxy]-propane-1,2-diol], the melting point (commonly the temperature of the solid-liquid transition) was 179.2 to 181.3 °C.

Regarding `C[C@H](O)CNc1nc(Oc2ccc(F)cc2F)nc2[nH]nc(-c3ccccc3Cl)c12` [Example 1, (S)-1-[3-(2-chlorophenyl)-6-(2,4-difluorophenoxy)-1H-pyrazolo[3,4-d]pyrimidin-4-ylamino]propan-2-ol], the melting point was in the range of 254.6 to 258.2 °C.

`C[C@H](O)CNc1cc(Oc2ccc(F)cc2F)nc2[nH]nc(-c3ccccc3Cl)c12` [Example 10, (S)-1-[3-(2-Chloro-phenyl)-6-(2,4-difluoro-phenoxy)-1H-pyrazolo[3,4-b]pyridin-4-ylamino]-propan-2-ol]: the melting point was 237.9 to 238.5 °C.

Take `C[C@H](O)CNc1nc(Oc2ccc(F)cc2F)cc2[nH]nc(-c3ccccc3Cl)c12` [Example 9, (S)-1-[3-(2-Chloro-phenyl)-6-(2,4-difluoro-phenoxy)-1H-pyrazolo[4,3-c]pyridin-4-ylamino]-propan-2-ol]: the melting point lay in the range of 171.2 to 172 °C.

These data come from patent US7435731B2, “Substituted pyrazolo[3,4-d]pyrimadines and methods of using the same” (Roche Palo Alto LLC, priority 2004, dated 2008).
